Data taken from ChEMBL document CHEMBL3870346, “Development of a simple proton nuclear magnetic resonance-based procedure to estimate the approximate distribution coefficient at physiological pH (logD7.4): Evaluation and comparison to existing practices” (Bioorg Med Chem Lett, 2017).
Structures can show the parent of a compound that is named as a salt.

Key:
[1] = physchem; conditions: 1-octanol/D2O, pH 7.4
[2] = physchem; conditions: buffer, pH 7.4
[3] = n-Octanol/water partition coefficient, log P of the compound by HPLC method

Row | Compound | logD [1] | logD [2] | logP ([3]; n-octanol/water) | logP ([3]; octanol/water)
1 | c1ccc(Oc2ccccc2)cc1 | 3.5 | – | – | –
2 | CCC(C)=O [BUTANONE] | 0.4 | 0.3 | 0.3 | –
3 | c1ccc2ccccc2c1 | – | 3.4 | – | –
4 | COC(=O)c1ccccc1 [METHYL BENZOATE] | 1.9 | – | – | –
5 | OCc1ccccc1 [BENZYL ALCOHOL] | 0.9 | – | – | –
6 | CC(=O)Nc1ccccc1 [ACETANILIDE] | 0.7 | 1.2 | – | 1
7 | c1ccc2c(c1)ccc1ccccc12 | – | 4.5 | 4.5 | –
8 | CCN(CC)CCOC(=O)c1ccc(N)cc1 [PROCAINE HYDROCHLORIDE] | -0.4 | – | – | –
9 | CCOC(=O)c1ccccc1 [ETHYL BENZOATE] | 2.4 | – | – | –
10 | Clc1ccccc1 [CHLOROBENZENE] | 2.6 | 2.9 | 2.8 | –
11 | Oc1ccccc1 [PHENOL] | 1.2 | 1.3 | – | –
12 | COc1ccccc1 [ANISOLE] | 2.3 | 2.3 | – | –
13 | c1ccc(-c2ccccc2)cc1 [BIPHENYL] | – | 4 | – | 4
14 | COc1ccc(O)cc1 [MEQUINOL] | 0.8 | 1.3 | 1.3 | –
15 | Cc1ccc(O)cc1 [p-CRESOL] | 2 | 1.8 | – | 1.9
16 | CC(=O)Nc1ccc(O)cc1 [ACETAMINOPHEN] | 0.2 | – | – | –
17 | O=[N+]([O-])c1ccccc1O [NITROPHENOLATE] | 1.5 | – | 1.8 | –
18 | Nc1ccc(Cl)cc1 [4-CHLOROANILINE] | 1.8 | – | – | –
19 | N#Cc1ccccc1 [BENZONITRILE] | 1.6 | – | 1.6 | –
20 | CC(=O)c1ccccc1 [ACETOPHENONE] | 1.7 | – | – | –
21 | Cc1ccc(CO)cc1 | 1.4 | 1.8 | 1.6 | –
